7 molecules from patent US20230265116A1, “DEGRADATION OF (EGFR) BY CONJUGATION OF EGFR INHIBITORS WITH E3 LIGASE LIGAND AND METHODS OF USE” (BEIGENE, LTD., priority 2020, published 2023) can be followed below.

Format in all cases: cell-based
The target of assay [1] is T1, EGFR L858R/C797S (BaF3 LC cells) (Homo sapiens, UniProt P00533, C797S/L858R).
T1 construct: expressed in transfected cells; host or cells: BaF3
Put plainly: EGFR degradation HTRF assay, BaF3 LC cells. Background: In TR-FRET formats the signal depends on donor and acceptor labels being close together.

In assay [2] the test system is EGFR Del19/T790M/C797S (H1975-clone #28). Briefly: EGFR degradation HTRF assay, H1975-clone #28 DTC cells. A digest of the protocol: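 Lentiviral Del19/T790M/C797S (clone #28) or Del19/C797S (clone #23) EGFR expressed in H1975 with endogenous EGFR knocked out. Cells treated 16 h, 37 °C, 8 doses, 5-fold from 10 uM top, 0.2% DMSO; EGFR read by HTRF after lysis. Degradation % vs DMSO control; DC50, Dmax from four-parameter fit.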

For assay [3], the system named is EGFR Del19/C797S (H1975-clone #23). Put plainly: EGFR degradation HTRF assay, H1975-clone #23 DC cells. As to conditions: for H1975 #23 DC Dmax (%): maximum percentage of degradation. On the procedure: H1975-clone #28(Del19/T790M/C797S) and H1975-clone #23(Del19/C797S). EGFR-Del19/T790M/C797S and EGFR-Del19/C797S were stably expressed in H1975 cell lines by lentivirus-mediated over-expression, respectively. The EGFR over-expressed cells then underwent gene knockout, in which the EGFR targeting sgRNA was designed to only target the endogenous EGFR copies and preserve the exogenous EGFR copies. Followed by the gene knockout, the edited H1975 cells were seeded in 96 well plates at the concentration of 1 cell/well, cultured for about 2 weeks to allow single clones formation. The formed clones were screened by DNA sequencing and whole exon sequencing analysis for the desired edition. H1975-clone #28 and H1975-clone #23 were finally confirmed as homozygous Del19/T790M/C797S EGFR and Del19/C797S EGFR clones, respectively.
BaF3 WT(wild type), BaF3-LTC(L858R/T790M/C797S) and BaF3-DTC(Del19/T790M/C797S) cells are treated with compounds diluted in 0.2% DMSO cell culture medium and incubate for 16h, 37° C., 5% CO2, H1975-#36, H1975-#28, H1975-#23 and HCC827 cells are treated with compounds diluted in 0.2% DMSO cell culture medium on day 2, incubate for 16h, 37° C., 5% CO2.the final concentriation of compounds in all assay is start with 10 uM, 5-fold dilution, total 8 doses were included.
After 16h treatment, add HTRF lysis buffer to each well; seal the plate and incubate 1 hour at room temperature on a plate shaker; Once the cells are lysed, 16 μL of cell lysate are transferred to a PE 384-well HTRF detection plate; 4 μL of pre-mixed HTRF antibodies are added to each well; Cover the plate with a plate sealer, spin 1000 rpm for 1 min, Incubate overnight at room temperature; Read on BMG PheraStar with HTRF protocol (337 nm-665 nm-620 nm).
The inhibition (degradation) percentage of the compound was calculated by the following equation: Inhibition percentage of Compound=100-100×(Signal-low control)/(High control-low control), wherein signal=each test compound group
High control=Cell group with added DMSO and without compound, indicating microplate readings without EGFR degradation;
Dmax is the maximum percentage of inhibition (degradation).
The IC50 (DC50) value of a compound can be obtained by fitting the following equation
Y=Bottom+(TOP−Bottom)/(1+((IC50/X)^hillslope))
Wherein, X and Y are known values, and IC50, Hillslope, Top and Bottom are the parameters obtained by fitting with software. Y is the inhibition percentage (calculated from the equation), X is the concentration of the compound; IC50 is the concentration of the compound when the 50% inhibition is reached. The smaller the IC50 value is, the stronger the inhibitory ability of the compound is. Vice versa, the higher the IC50 value is, the weaker the inhibitory ability of the compound is; Hillslope represents the slope of the fitted curve, generally around 1*; Bottom represents the minimum value of the curve obtained by data fitting, which is generally 0%±20%; Top represents the maximum value of the curve obtained by data fitting, which is generally 100%±20%. The experimental data were fitted by calculating and analyzing with Dotmatics data analysis software.

Assay [4] addresses T2, EGFR L858R/T790M/C797S (BaF3-LTC cells) (Homo sapiens, UniProt P00533, C797S/L858R/T790M).
T2 construct: expressed in transfected cells; host or cells: BaF3
Briefly: EGFR degradation HTRF assay, BaF3-LTC cells. The method, boiled down:
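Cells treated 16 h at 37 °C, 5% CO2 in medium with 0.2% DMSO; top final concentration 10 uM, 5-fold dilution, 8 doses. Lysates read by HTRF (665/620 nm); degradation % versus DMSO high control, DC50 from four-parameter fit, Dmax as maximal degradation.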

Setting [5] is: H1975 # 28 DTC cells; maximum percentage of inhibition (degradation).
[6] abbreviates: BaF3 LC, 16h treatment; read-out: BaF3 LC DC50.
Setting [7] is: H1975 # 28 DTC cells; EGFR degradation, IC50 (DC50) from curve fit; read-out: DC50(nM) H1975 # 28 DTC.
The mark [8] stands for this setting: H1975 #23 DC, 16h treatment, read-out: H1975 #23 DC DC50.
The mark [9] stands for this setting: BaF3-LTC cells; EGFR degradation, IC50 (DC50) from curve fit; read-out: DC50(nM) BaF3-LTC.
Where [10] appears, read: BaF3 LC, 16h treatment, maximum percentage of degradation; read-out: BaF3 LC Dmax (%).

Structures are written as SMILES. Like-named read-outs stand apart in the source and are kept apart here.

T2 sequence (P00533 25-1210 T790M/C797S/L858R): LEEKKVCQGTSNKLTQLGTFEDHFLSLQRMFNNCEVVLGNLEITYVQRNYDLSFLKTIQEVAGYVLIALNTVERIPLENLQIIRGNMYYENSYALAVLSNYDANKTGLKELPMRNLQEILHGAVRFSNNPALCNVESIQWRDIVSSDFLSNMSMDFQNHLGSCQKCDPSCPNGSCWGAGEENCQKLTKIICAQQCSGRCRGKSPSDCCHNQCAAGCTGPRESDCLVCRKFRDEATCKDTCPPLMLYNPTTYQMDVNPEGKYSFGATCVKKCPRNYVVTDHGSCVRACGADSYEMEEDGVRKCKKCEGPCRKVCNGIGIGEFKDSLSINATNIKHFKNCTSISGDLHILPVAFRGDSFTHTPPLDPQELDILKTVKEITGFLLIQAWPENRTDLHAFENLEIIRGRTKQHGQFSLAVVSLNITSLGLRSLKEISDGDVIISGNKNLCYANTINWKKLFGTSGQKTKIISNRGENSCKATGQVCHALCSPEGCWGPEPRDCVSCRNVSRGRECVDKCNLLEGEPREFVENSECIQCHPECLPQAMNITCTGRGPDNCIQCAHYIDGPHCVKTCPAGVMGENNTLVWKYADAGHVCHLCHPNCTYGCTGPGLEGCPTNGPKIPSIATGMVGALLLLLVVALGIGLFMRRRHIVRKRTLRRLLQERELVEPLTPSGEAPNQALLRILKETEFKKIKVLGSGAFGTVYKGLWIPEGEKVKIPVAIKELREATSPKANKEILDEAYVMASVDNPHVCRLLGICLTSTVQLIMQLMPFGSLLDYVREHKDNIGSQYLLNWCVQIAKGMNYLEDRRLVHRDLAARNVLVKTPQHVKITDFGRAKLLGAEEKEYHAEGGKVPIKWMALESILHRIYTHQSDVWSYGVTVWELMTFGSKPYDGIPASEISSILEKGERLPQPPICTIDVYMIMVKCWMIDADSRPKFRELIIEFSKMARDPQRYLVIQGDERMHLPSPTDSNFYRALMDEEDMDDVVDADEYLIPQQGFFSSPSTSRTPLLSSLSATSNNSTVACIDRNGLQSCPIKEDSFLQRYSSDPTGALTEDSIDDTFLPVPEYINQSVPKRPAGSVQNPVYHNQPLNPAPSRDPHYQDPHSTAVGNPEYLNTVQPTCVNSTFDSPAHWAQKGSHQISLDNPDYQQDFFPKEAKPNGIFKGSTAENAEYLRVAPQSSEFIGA
T1 sequence (P00533 25-1210 C797S/L858R): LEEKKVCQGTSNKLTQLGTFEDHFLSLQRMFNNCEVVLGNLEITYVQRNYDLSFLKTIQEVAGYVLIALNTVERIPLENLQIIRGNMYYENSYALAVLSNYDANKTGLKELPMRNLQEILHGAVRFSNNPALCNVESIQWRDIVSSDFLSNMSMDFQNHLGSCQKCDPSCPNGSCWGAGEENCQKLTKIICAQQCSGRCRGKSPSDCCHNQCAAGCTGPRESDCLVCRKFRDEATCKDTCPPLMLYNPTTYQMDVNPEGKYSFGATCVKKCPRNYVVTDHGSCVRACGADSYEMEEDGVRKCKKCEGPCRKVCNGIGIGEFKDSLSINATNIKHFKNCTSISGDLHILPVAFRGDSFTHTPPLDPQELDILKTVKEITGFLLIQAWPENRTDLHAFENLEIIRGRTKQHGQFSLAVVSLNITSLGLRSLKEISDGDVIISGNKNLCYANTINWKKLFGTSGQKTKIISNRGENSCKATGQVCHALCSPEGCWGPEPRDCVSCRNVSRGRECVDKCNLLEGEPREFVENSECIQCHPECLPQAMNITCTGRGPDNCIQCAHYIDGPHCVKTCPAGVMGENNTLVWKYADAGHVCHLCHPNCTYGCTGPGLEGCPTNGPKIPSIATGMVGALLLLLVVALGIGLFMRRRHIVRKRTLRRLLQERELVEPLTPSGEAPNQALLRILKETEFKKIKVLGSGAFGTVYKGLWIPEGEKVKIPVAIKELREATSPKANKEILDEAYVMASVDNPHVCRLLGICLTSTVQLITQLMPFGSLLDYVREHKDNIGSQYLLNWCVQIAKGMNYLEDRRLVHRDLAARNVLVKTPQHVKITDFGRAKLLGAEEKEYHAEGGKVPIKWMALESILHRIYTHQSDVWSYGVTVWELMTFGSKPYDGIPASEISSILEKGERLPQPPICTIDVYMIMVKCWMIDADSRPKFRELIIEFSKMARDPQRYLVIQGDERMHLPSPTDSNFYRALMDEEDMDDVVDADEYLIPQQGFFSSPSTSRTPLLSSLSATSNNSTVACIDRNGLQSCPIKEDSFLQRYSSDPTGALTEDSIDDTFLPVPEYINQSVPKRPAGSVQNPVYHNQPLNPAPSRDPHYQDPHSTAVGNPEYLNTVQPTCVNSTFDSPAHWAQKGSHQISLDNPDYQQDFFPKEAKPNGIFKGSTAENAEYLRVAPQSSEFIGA

A word on the Dmax: it is the greatest extent of degradation seen. The term DC50 denotes the concentration giving 50% degradation. On to `CCc1ccc2c(P(C)(C)=O)c(Nc3nc(Nc4cc(CC)c(N5CCC(N6CCN(C(=O)C7CN(c8cccc9c8oc(=O)n9C8CCC(=O)NC8=O)C7)CC6)CC5)cc4OC)ncc3Br)ccc2n1` (stereo not shown) [Example 446, 3-(7-(3-(4-(1-(4-((5-bromo-4-((5-(dimethylphosphoryl)-2-ethylquinolin-6-yl)amino)pyrimidin-2-yl)amino)-2-ethyl-5-methoxyphenyl)piperidin-4-yl)piperazine-1-carbonyl)azetidin-1-yl)-2-oxobenzo[d]oxazol-3(2H)-yl)piperidine-2,6-dione], for which the Dmax in assay [1] (BaF3, read-out: BaF3 LC Dmax (%)) stood at 81.7%; in assay [4] (read-out: Dmax (%) BaF3-LTC, BaF3-LTC cells; maximum percentage of inhibition (degradation)), 96.4%. Further, the DC50 in assay [1] (read-out: BaF3 LC DC50; BaF3 LC, 16h treatment) was determined as 5.87 nM; in assay [2] (read-out: DC50(nM) H1975 # 28 DTC; H1975 # 28 DTC cells; EGFR degradation, IC50 (DC50) from curve fit), 0.726 nM; in assay [3] (read-out: H1975 #23 DC DC50, 16h treatment), 0.616 nM; in assay [4] (read-out: DC50(nM) BaF3-LTC; BaF3-LTC cells; EGFR degradation, IC50 (DC50) from curve fit), 3.89 nM. Further, the “Dmax (%) H1975 # 28 DTC” value in assay [2] (setting [5]) is recorded as 80.48%. In addition, the “H1975 #23 DC Dmax (%)” value in assay [3] (16h treatment) came to 59.25%.
For `CCOc1cc(N2CCC(N3CCN(CCc4cccc5c4oc(=O)n5C4CCC(=O)NC4=O)CC3)CC2)c(CC)cc1Nc1ncc(Br)c(Nc2ccc3c(=O)n(CC)ncc3c2P(C)(C)=O)n1` (stereo not shown) [Example 455, 3-(7-(2-(4-(1-(4-((5-bromo-4-((5-(dimethylphosphoryl)-2-ethyl-1-oxo-1,2-dihydrophthalazin-6-yl)amino)pyrimidin-2-yl)amino)-5-ethoxy-2-ethylphenyl)piperidin-4-y)piperazin-1-yl)ethyl)-2-oxobenzo[d]oxazol-3(2H)-yl)piperidine-2,6-dione], the “BaF3 LC Dmax (%)” value in assay [1] (BaF3 LC, 16h treatment, maximum percentage of degradation) was found to be 77.76%. The DC50 in assay [1] (setting [6]) stood at 121 nM; in assay [2] (setting [7]) it was 0.47 nM; in assay [3] (setting [8]), 2.31 nM; in assay [4] (setting [9]) it was 3.83 nM. In addition, the “Dmax (%) H1975 # 28 DTC” value in assay [2] (setting [5]) came to 79.19%. Besides, the “H1975 #23 DC Dmax (%)” value in assay [3] (16h treatment) turned out to be 77.73%. Also, in assay [4] (BaF3-LTC cells; maximum percentage of inhibition (degradation)), the “Dmax (%) BaF3-LTC” value is on record as 87.13%.
Consider `CCc1ccc2c(P(C)(C)=O)c(Nc3nc(Nc4cc(CC)c(N5CCC(N6CCN(CCc7ccc8c(oc(=O)n8C8CCC(=O)NC8=O)c7F)CC6)CC5)cc4OC)ncc3Br)ccc2n1` (stereo not shown) [Example 458, 3-(6-(2-(4-(1-(4-((5-bromo-4-((5-(dimethylphosphoryl)-2-ethylquinolin-6-yl)amino)pyrimidin-2-yl)amino)-2-ethyl-5-methoxyphenyl)piperidin-4-yl)piperazin-1-yl)ethyl)-7-fluoro-2-oxobenzo[d]oxazol-3(2H)-yl)piperidine-2,6-dione], for which the figures for the Dmax in assay [1] (setting [10]) and in assay [4] (BaF3-LTC cells; maximum percentage of inhibition (degradation); read-out: Dmax (%) BaF3-LTC) were 91.5% and 88.3%, respectively. The DC50 in assay [1] (setting [6]) is 3.29 nM; in assay [2] (setting [7]) it was 0.505 nM; in assay [3] (setting [8]) it was 3.26 nM; in assay [4] (setting [9]) it was 2.09 nM. Further, the “Dmax (%) H1975 # 28 DTC” value in assay [2] (setting [5]) stood at 83.62%. Also, in assay [3] (16h treatment), the “H1975 #23 DC Dmax (%)” value stood at 59.65%.
Consider `CCc1ccc2c(P(C)(C)=O)c(Nc3nc(Nc4cc(CC)c(N5CCC(N6CCN(CCc7cc(F)c([C@H]8CCC(=O)NC8=O)c(F)c7)CC6)CC5)cc4OC)ncc3Br)ccc2n1` [Example 484, (R)-3-(4-(2-(4-(1-(4-((5-bromo-4-((5-(dimethylphosphoryl)-2-ethylquinolin-6-yl)amino)pyrimidin-2-yl)amino)-2-ethyl-5-methoxyphenyl)piperidin-4-yl)piperazin-1-yl)ethyl)-2,6-difluorophenyl)piperidine-2,6-dione], for which the results for the DC50 in assay [1] (setting [6]), in assay [2] (setting [7]) and in assay [3] (setting [8]) were 11.9 nM, 0.781 nM and 3.54 nM, respectively. Besides, the “Dmax (%) H1975 # 28 DTC” value in assay [2] (setting [5]) is listed as 89.6%. For the same molecule, in assay [3] (16h treatment), the “H1975 #23 DC Dmax (%)” value turned out to be 82.99%.
The like results for `CCc1ccc2c(P(C)(C)=O)c(Nc3nc(Nc4cc(CC)c(N5CCC(N6CCN(C(=O)[C@@H]7CCN(c8cc(F)c([C@H]9CCC(=O)NC9=O)c(F)c8)C7)CC6)CC5)cc4OC)ncc3Br)ccc2n1` [Example 489, (R)-3-(4-((R)-3-(4-(1-(4-((5-bromo-4-((5-(dimethylphosphoryl)-2-ethylquinolin-6-yl)amino)pyrimidin-2-yl)amino)-2-ethyl-5-methoxyphenyl)piperidin-4-yl)piperazine-1-carbonyl)pyrrolidin-1-yl)-2,6-difluorophenyl)piperidine-2,6-dione] were, in that order, 19.7 nM, 1.37 nM, 4.72 nM, 82.72% and 59.94%.
With `CCc1ccc2c(P(C)(C)=O)c(Nc3nc(Nc4cc(CC)c(N5CCC(N6CCN(CCc7cccc8c7n(C)c(=O)n8C7CCC(=O)NC7=O)CC6)CC5)cc4OC)ncc3Br)ccc2n1` (stereo not shown) [Example 516, 3-(4-(2-(4-(1-(4-((5-bromo-4-((5-(dimethylphosphoryl)-2-ethylquinolin-6-yl)amino)pyrimidin-2-yl)amino)-2-ethyl-5-methoxyphenyl)piperidin-4-yl)piperazin-1-yl)ethyl)-3-methyl-2-oxo-2,3-dihydro-1H-benzo[d]imidazol-1-yl)piperidine-2,6-dione], the Dmax in assay [1] (setting [10]) amounted to 94.8%. Further, the figures for the DC50 in assay [1] (setting [6]) and in assay [3] (setting [8]) were 1.83 nM and 1.11 nM, respectively. The “H1975 #23 DC Dmax (%)” value in assay [3] (16h treatment) was 78.66%.
As to `CCc1cc(Nc2ncc(Br)c(Nc3ccc4nc(C)ccc4c3P(C)(C)=O)n2)c(OC)cc1N1CCC(N2CCN(C(=O)[C@@H]3CCN(c4cc(F)c([C@H]5CCC(=O)NC5=O)c(F)c4)C3)CC2)CC1` [Example 750, (R)-3-(4-((R)-3-(4-(1-(4-((5-bromo-4-((5-(dimethylphosphoryl)-2-methylquinolin-6-yl)amino)pyrimidin-2-yl)amino)-2-ethyl-5-methoxyphenyl)piperidin-4-yl)piperazine-1-carbonyl)pyrrolidin-1-yl)-2,6-difluorophenyl)piperidine-2,6-dione], the DC50 in assay [1] (setting [6]) stood at 26.1 nM; in assay [2] (setting [7]), 1.17 nM; in assay [3] (setting [8]), 6.52 nM. Besides, in assay [2] (setting [5]), the “Dmax (%) H1975 # 28 DTC” value is on record as 84.8%. Besides, the “H1975 #23 DC Dmax (%)” value in assay [3] (16h treatment) is listed as 74.02%.
